{"source": "patent US4803208A", "about": "“Opiate agonists and antagonists” (Sloan-Kettering Institute For Cancer Research, priority 1985, dated 1989)", "key": {"[1]": {"system": "prolactin release", "settings": "cited from earlier work"}, "[2]": {"system": "rats", "settings": "cited from earlier work"}, "[3]": {"settings": "currently available agents; cited from earlier work"}, "[4]": {"system": "growth hormone release", "settings": "cited from earlier work"}, "[5]": {"system": "growth hormone release", "experiment": "Growth hormone release in vivo", "settings": "in vivo"}, "[6]": {"system": "prolactin release", "experiment": "Prolactin release in vivo", "settings": "in vivo"}, "[7]": {"system": "rats", "type": "in vivo, rat", "settings": "50 mg/kg intravenously", "description": "They were then food deprived for 24 hours but allowed free access to water. Five rats received saline, four received naloxone and three naloxazone. […] The animals were then given free access to food for 1 hour and their weight gain noted. Thus, eating was measured 24 hours after the administration of the drugs and after 24 hours of food deprivation."}}, "note": "Values joined by “and” are separate entries in the source; they are usually repeats but may differ in a detail not shown here. Equal entries are not always repeated."}
{"smiles": "C=CCN1CC[C@]23c4c5ccc(O)c4O[C@H]2C(=O)CC[C@@]3(O)[C@H]1C5", "note": "[Naloxone, naloxone]", "values": [{"measurement": "effect on basal levels of prolactin, naloxone (in words)", "setting": "[1]", "result": "lowering of the basal levels of prolactin and growth hormone"}, {"measurement": "suppression of eating behavior (known)", "setting": "[2]", "result": "effectively suppress eating behavior in rats"}, {"measurement": "half-life (in words)", "setting": "[3]", "result": "short half-life"}, {"measurement": "effect on basal levels of growth hormone, naloxone (in words)", "setting": "[4]", "result": "lowering of the basal levels of prolactin and growth hormone"}, {"measurement": "effect on growth hormone release (in words)", "setting": "[5]", "result": "inhibits morphine's release of both hormones"}, {"measurement": "effect on prolactin release (in words)", "setting": "[6]", "result": "inhibits morphine's release of both hormones"}, {"measurement": "effect on feeding (in words)", "setting": "[7]", "result": "inability of naloxone to effect feeding behavior"}, {"measurement": "Amounts eaten, individual animals", "setting": "[7]; 1 hour free access to food, 24 hours after drug", "result": "4.1 grams and 5.3 grams and 4.4 grams and 3.7 grams"}, {"measurement": "Amounts eaten, Mean ± SEM", "setting": "[7]; 1 hour free access to food, 24 hours after drug, saline 4.78 ± 0.42, significant at the p 0.05 level (ANOVA)", "result": "4.38 ± 0.34", "unit": "grams"}]}
